For data set [1] the following is noted: toxicities to organs only at high concentrations; cited from earlier work.
The test system of data set [2] is HPV+ (SCC47, SCC090, SCC104, SCC152) and HPV- (SCC19, SCC29, SCC49, SCC84) HNSCC cell lines. The data set can be described thus: MTT cell viability, HNSCC panel. The data set is classed as cell-based. Here is the method:
While SAR studies using the SCC104 cell line provided evidence of the activity of the analogs, further studies were conducted to assess not just the potency, but also the selectivity. As a step towards that goal, the efficacy of GA-OH was evaluated in a panel containing both HPV^+ and HPV^− HNSCC cell lines using MTT cell viability assays. Four HPV^+ cell lines (SCC47, SCC090, SCC104, SCC152) and four HPV^− cell lines (SCC19, SCC29, SCC49, SCC84) were utilized. GA-OH behaved dose dependently in cell lines both with or without HPV. […] FIGS. 7A-7C are graphical representations of the sensitivity of HPV^+ cell lines and HPV^− cell lines to GA-OH-mediated growth inhibition. FIG. 7A is a graphical representation of the cell growth inhibition of HNSCC HPV^+ and HPV^− cell lines by GA-OH (+ and closed shapes represent HPV^+ cell lines and − and open shapes the HPV^− cell lines). […] These cells were good controls, as HPV is an established causative agent in CC carcinogenesis. Two HPV^+ cell lines, SiHa and CaSki were selected as the positive controls and the Saos-2 cell line was used as an HPV-negative control. […] FIG. 7B is a graphical representation of the cell growth inhibition of cervical cancer HPV^+ and HPV^− cell lines by GA-OH. HPV^+ cell lines display higher sensitivity than do HPV^− cell lines as shown by the leftwards shift of the HPV^+ curves (SCC47, 90, 104, 152 in FIG. 7A and SiHa and CaSki in FIG. 7B).
All working concentrations were diluted in PBS to the desired concentration before use. To test the effect of gambogic acid and/or its derivatives on cell viability, all cell lines were seeded at 2×10^4 per well in 96-well plates and allowed to adhere overnight. Various concentrations of the analogues were added and the cells incubated at 37° C. for 24 hr. Viability was then measured using the MTT assay, performed as described previously. […] Cell viability and potency were assessed from % inhibition relative to the vehicle control, and IC50 dose curves were generated using GraphPad Prism.

In data set [3] the target is T1, E6 binding to E6AP (GST-E6 and His6-E6AP) (Human papillomavirus type 16, UniProt P03126).
T1 construct: made in house; host or cells: E. coli (stated for GST-E6 only)
As to the kind of experiment: AlphaScreen E6-E6AP binding (cross-validation). The settings on record: head to head comparison gambogic acid vs myricetin; read-out: IC50 against E6-E6AP. (Bead proximity is the source of the signal in Alpha formats.)
Protocol: Its activity was then cross-validated by performing additional AlphaScreening™ tests using GST-E6 and His6-E6AP as substrates. […] The activity of these two inhibitors against E6-Caspase 8 binding were evaluated in parallel for a head to head comparison.
The selected compound(s) were then cross-validated with a related but different primary screen assay. Specifically, the caspase 8 used in the primary screen was replaced with E6AP and the inhibitory activity was evaluated against E6 binding to E6AP (E6-E6AP) using the same steps as in the AlphaScreen™ protocol described above.

Data set [4] deals with T2, full-length HPV E6 binding to human Caspase 8 (Human papillomavirus type 16, UniProt P03126).
T2 construct: made in house; host or cells: E. coli
To be noted: for inhibition of E6-caspase 8 binding relative to GA: SAR analogs. Here is the method: Three structurally diverse libraries (Prestwick library, Microsource Spectrum library and an in-house collection at Kansas University; see Table 1) were screened for the ability of compounds to inhibit the binding of full-length HPV E6 to human Caspase 8 using a previously optimized AlphaScreen™ protocol.
The compounds were diluted to a working concentration in DMSO and screened at a single-point final concentration of 10 μM with no replicates. Briefly, 75 nL of each compound was transferred and added to wells of the destination 384-well plate using the Echo dispenser to 4 μL of blocking solution. 4 μL of 800 nM GST-E6 and 4 μL of His6-Caspase 8 were added and pre-incubated at room temperature for 60 minutes. 8 μL of the donor and acceptor bead mixture (final concentration of 20 μg/ml) was then added. The plates were sealed and incubated for 4 hours at room temperature before the plates were read using the Envision™ Multi-Label plate reader (Perkin Elmer Inc.). […] A 10-point serial dilution of these compounds was done for dose-dependency reconfirmation. Dose response inhibition curves were constructed and IC50 calculated using GraphPad Prism using four parameter non-linear regression analysis.
The first counter-screen assay was based using the GST-His6 fusion peptide as the E6-binding partner instead of GST-E6-His6-Caspase 8. Hit candidate compounds from the primary screen were prepared using a 6-point serial dilution. Using an Echo dispenser, compounds were transferred to plates containing 4 μL of blocking buffer. 8 μL of 5 nM GST-His6 peptide substrate was then added. The mixture was pre-incubated at room temperature for 60 minutes. Glutathione donor and nickel chelate acceptor beads (final concentration 20 μg/mL) were added and incubated for another 60 minutes at room temperature. Dose-dependency of the compounds using GST-E6-His6-Caspase 8 was performed in parallel using the same protocol as in the primary screen. The signals were then read using the Envision™ plate reader.
(§1) Using the SciFinder and Zinc15 databases, several gambogic acid structural analogs were identified and selected. The 8 analogs were obtained as follow: gambogenic amide (Enzo Life Sciences), gambogenic acid (Selleckchem), morellic acid (Aobious), 30-hydroxy gambogic acid (Quality Phytochemicals, LLC), acetyl gambogic acid (Microsource), and gambogin, neogambogic acid and isomorellinol (MolPort Natural Products). Additional gambogic acid was purchased from Tocris. The interactions of the analogues with E6-caspase 8 was tested using AlphaScreen™ technology using the same protocol as with the primary screen, and were compared to the parent compound. The effect on cell viability was also similarly done in HPV^+ and HPV^− cell lines via the MTT assay (see below) and potency was determined using GraphPad IC50 curve fitting.

The subject of data set [5] is HPV- (SCC19, SCC29) and HPV+ (SCC47, SCC104, SCC152) HNSCC cell lines. As to the kind of experiment: Sensitization of HNSCC cell lines to photon radiation. The settings on record: radiation 0-4Gy followed by inhibitor; DER10. The data set is classed as cell-based.
Protocol: The dose enhancement ratio for 10% survival (DER10) was calculated as follows: DER10=(Dose correlated with 10% survival fraction in radiation-treated cells)/(Dose correlated with 10% survival fraction in radiation and inhibitor treated cells).
CCDP, Cetuximab, and GA-OH were evaluated for their ability to sensitize HNSCC cell lines to photon radiation.
Colonies were counted after 14-21 days and normalized to vehicle control and survival analysis was performed.
Sensitization of an additional HPV^+ cell line to radiation by CDDP, Cetuximab and GA-OH was evaluated.
The subject of data set [6] is SCC104 (HPV+ HNSCC cell line). The data set can be described thus: MTT cell viability of gambogic acid analogs. The data set is classed as cell-based. To be noted: for rank among highest IC50s relative to the parent compound: SCC104, MTT. The method, then: Next, the analogs were evaluated for functional activity using the HPV^+ HNSCC cell line, SCC104, in the MTT assay as described previously to determine whether similar findings would be observed as in the in vitro AlphaScreen™ analysis. With one exception, the patterns were similar to the AlphaScreen™ data, but the differences were relatively more pronounced in the cell-based screen (FIG. 6B). […] Based on these findings, 30-hydroxygambogic acid (GA-OH) was selected as a candidate for more extensive functional studies.
as §1
All working concentrations were diluted in PBS to the desired concentration before use. To test the effect of gambogic acid and/or its derivatives on cell viability, all cell lines were seeded at 2×10^4 per well in 96-well plates and allowed to adhere overnight. Various concentrations of the analogues were added and the cells incubated at 37° C. for 24 hr. Viability was then measured using the MTT assay, performed as described previously. All experiments were repeated at least three times (three biological replicates, carried out on different days). Data presented are from a representative experiment. Cell viability and potency were assessed from % inhibition relative to the vehicle control, and IC50 dose curves were generated using GraphPad Prism.

As a reminder, the IC50 is the concentration needed to halve the response being measured.

Where two headings read alike, the source gives them in different places.

T2 sequence (P03126 whole entry): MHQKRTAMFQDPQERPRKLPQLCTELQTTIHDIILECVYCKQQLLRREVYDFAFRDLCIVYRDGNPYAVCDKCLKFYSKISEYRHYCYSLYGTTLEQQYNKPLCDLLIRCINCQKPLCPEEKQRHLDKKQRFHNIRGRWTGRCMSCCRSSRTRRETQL
T1 sequence (P03126 whole entry): as above

Turning to `CC(C)=CCC[C@]1(C)C=Cc2c(O)c3c(c(CC=C(C)C)c2O1)O[C@]12C(=C[C@@H]4C[C@H]1C(C)(C)O[C@@]2(C/C=C(/C)C(=O)O)C4=O)C3=O` [gambogic acid], in data set [1], the “tolerability in animal studies” value is “relatively tolerable”. Moreover, in data set [2], the “potency and selectivity for HPV+ versus HPV- cells” value is on record as “significantly more sensitive”. The half-inhibitory concentration (IC50) in data set [3] was 1.7 µM; in data set [4] (11 compounds that passed counter-screening, read-out: IC50 (μM) against E6-Caspase 8 binding), 2 µM; in data set [4] (head to head comparison gambogic acid vs myricetin, read-out: IC50 against E6-Caspase 8), 1.9 µM.
In the case of `[NH2][Pt]([NH2])([Cl])[Cl]` [CDDP, cisplatin, reference compound], in data set [5], the “sensitization to photon radiation” value is given as “greatest sensitization”.
Take `CC(C)=CCC[C@]1(C)C=Cc2c(O)c3c(c(CC=C(C)C)c2O1)O[C@]12C(=C[C@@H]4CC1C(C)(C)O[C@@]2(C/C=C(/C)C(N)=O)C4=O)C3=O` [analog #4, gambogic amide]: the “inhibition of E6-caspase 8 binding relative to GA” value in data set [4] is “did not significantly affect the activity”.
Turning to `CC(C)=CCC/C(C)=C/Cc1c(O)c(CC=C(C)C)c2c(c1O)C(=O)C1=C[C@@H]3C[C@H]4C(C)(C)O[C@@](C/C=C(/C)C(=O)O)(C3=O)[C@@]14O2` [analog #3, gambogenic acid], the “rank among highest IC50s relative to the parent compound” value in data set [6] is “third”.
Same read-out and setting: the same measure for `CC(C)=CCCC1(C)CC(O)c2c(O)c3c(c(CC=C(C)C)c2O1)OC12C(=CC4CC1C(C)(C)OC2(C/C=C(\C)C(=O)O)C4=O)C3=O` (stereo not shown) [analog #5, neo-gambogic acid]: “fourth”.
In the case of `O=c1c(O)c(-c2cc(O)c(O)c(O)c2)oc2cc(O)cc(O)c12` [myricetin, reference compound], the half-inhibitory concentration (IC50) in data set [3] is 5.6 µM; in data set [4] (read-out: IC50 against E6-Caspase 8), 4.6 µM.
`CC(C)=CCc1c2c(c(O)c3c1O[C@]14C(=C[C@@H]5C[C@H]1C(C)(C)O[C@@]4(C/C=C(/C)C(=O)O)C5=O)C3=O)C=CC(C)(C)O2` [analog #2, morellic acid]: the “inhibition of E6-caspase 8 binding relative to GA” value in data set [4] was “did not significantly affect the activity”.
Take `CC(C)=CCCC1(C)C=Cc2c(O)c3c(c(CC=C(C)C)c2O1)O[C@]12C(=CC4C[C@H]1C(C)(C)OC2(CC=C(C)C)C4=O)C3=O` (stereo partly shown) [analog #6, gambogin]: the “rank among highest IC50s relative to the parent compound” value in data set [6] was “first”.
`CC(C)=CCc1c2c(c(O)c3c1OC14C(=CC5CC1C(C)(C)OC4(C/C=C(\C)CO)C5=O)C3=O)C=CC(C)(C)O2` (stereo not shown) [analog #7, iso morellinol]: in data set [4], the “inhibition of E6-caspase 8 binding relative to GA” value is “did not significantly affect the activity”.
For the compound `CC(=O)Oc1c2c(c(CC=C(C)C)c3c1C(=O)C1=C[C@@H]4CC5C(C)(C)OC(C/C=C(\C)C(=O)O)(C4=O)[C@@]15O3)OC(C)(CCC=C(C)C)C=C2` (stereo partly shown) [analog #8, acetyl iso-gambogic acid], the “inhibition of E6-caspase 8 binding relative to GA” value in data set [4] is given as “did not significantly affect the activity”. Further, in data set [6] (SCC104, 24 hr), the “potency in MTT assay” value is listed as “diminished activity”.

(Values after patent US20250025440A1, “COMPOSITIONS AND METHODS FOR MANAGEMENT OF HUMAN PAPILLOMA VIRUS-ASSOCIATED CANCERS” (LOMA LINDA UNIVERSITY, priority 2021, published 2025).)
